ChEMBL document CHEMBL3227980, “Optically pure (+)-nicotine from (+/-)-nicotine and biological comparisons with (-)-nicotine” (J Med Chem, 1979)

What was measured:
[1] = Toxicity in iv dosed ICR mouse assessed as lethality; details: in vivo
in vivo = details: ICR, mouse, iv

In the case of `CN1CCC[C@@H]1c1cccnc1.O=C(O)C(O)C(O)C(=O)O.O=C(O)C(O)C(O)C(=O)O`, the LD50 [1] is reported as 2.75 mg/kg.
With `CN1CCC[C@H]1c1cccnc1.O=C(O)C(O)C(O)C(=O)O.O=C(O)C(O)C(O)C(=O)O` the LD50 [1] was 0.38 mg/kg and the selectivity ratio (in vivo) was 7.24.
